In patent US5639881A, “Synthesis and elucidation of pyrimido (4,5-Q) quinazoline derivatives” (priority 1991, dated 1997):
Read-outs that look alike come from different tables or passages of the source.

Experiments:
[1] = value determined previously; cited from earlier work
[2] = format: physicochemical
Experimental: Oxygen Reactivity. In order to assess the capability of the title systems to generate reactive oxygen species by quinone/hydroquinone cycling, the rate laws were determined for oxygen oxidation of 43 and 44, Scheme IX. These respective hydroquinones are analogues of 28 and 35 without leaving groups present. As expected, the internal hydrogen bonds of 43 slow oxidation at high pH while the absence of hydrogen bonds in 44 result in stopped flow oxidations under these conditions. However, the crossing of the pH-rate profiles near neutrality (FIG. 3) results in similar rates of oxidation for both systems at physiological pH.
(§1) In aerobic aqueous buffer, both 43 and 44 are converted to the corresponding quinones {Scheme IX) by first-order processes. […] The solid curve of Plot A was generated from the rate law, kobsd =k1 +k2 Ka1 /(aH +Ka1), where k1 is the rate of oxidation of the neutral species (1×10^-3 sec^-1), k2 is the rate of oxidation of the hydroquinone monoanion (0.046 sec^-1), pKa1 is the acid dissociation constant (7.78), and aH is the proton activity determined with a pH meter. The acid dissociation constant obtained from the pH-rate data is nearly the same as the value determined previously, 8.26±0.15.1
(§2) Kinetic Studies of Hydrolysis and Oxidation. The hydrolytic studies of 28 and 35 were carried out in anaerobic aqueous buffer, and the reoxidation studies of 43 and 44 were carried out in aerobic aqueous buffer at 30.0°±0.2° C. The anaerobic experiments were carried out with Thunberg cuvettes as previously described. A dimethyl sulfoxide stock of the compound to be studied was prepared fresh, and 50 μL of this stock was added to 2.95 mL of buffer. The absorbance vs time data were obtained on a PERKIN-ELMER 559 or a Lambda-3 UV-vis spectrophotometer and fit to a first-order rate law.

physchem = format: physicochemical
Text: (§3) The mechanism of 38 and 39 formation from 28 is discussed in conjunction with Scheme VI. The pH-rate data in FIG. 1 indicate that rate-determining chloride elimination occurs from the neutral, monoanion, dianion, and trianion forms of 28. Plateaus corresponding to the first three eliminations are indicated on FIG. 1. The increasing rates above pH 11 may pertain to equilibrium trianion formation and rate-determining elimination of chloride from the trianion. Consideration of rate-determining chloride elimination from the various forms of 28 provides the rate law shown in equation 1 [formula] where the rate and equilibrium constants are those shown in Scheme VI. The numerical values for these constants (shown in Scheme VI) were obtained by computer-fitting the data in FIG. 1 to equation 1. The solid line in FIG. 1 was then generated from equation 1 substituted with these constants. The independently determined pKa for monoanion formation (8.26±0.15) is in agreement with the kinetic pKa value (8.3). Thus, the kinetically-determined pKa values in Scheme VI represent actual acid dissociations rather than mixtures of constants. [drawing 5]
as §1

colon and breast cancers = conditions: for IC50: Homo sapiens; for antitumor activity: colon and breast cancers
[3] = format: physicochemical; remark: listed apart in the source
Text: The hydrolysis of 28 was followed spectrophotometrically at 430 nm in anaerobic aqueous buffer over a pH range of 6 to 12 with [28]=5×10^-5 M. Absorbance vs. time plots for hydrolysis are first order in character, with the first-order rate constants (kobsd)independent of buffer concentration but dependent on pH as shown in FIG. 1. The use of known hydroquinone and quinone extinction coefficients at 430 nm permitted the calculation of product yields: 69±1% 38 and 31±1% 39 regardless of the pH (product structures shown in Scheme VI). The accuracy of the yield determinations was enhanced by the intense hydroquinone visible spectrum and the absence of visible absorbances for the quinone derivative. Product isolation studies confirmed the presence of 39.
as §3
The hydrolysis of 35 in anaerobic buffer proceeds by a first-order process to afford 42 as the sole product. […] The pH-rate profile, obtained over the pH range of 5 to 8, is a straight line of slope +1. […] Computer fitting the pH-rate data to kobsd =k1 Ka1 /aH, and substituting pKa1 =10.3, provides and elimination rate constant of k1 =24 sec^-1.
as §2

[4] = quinone methide trapping with added 2-mercaptoethanol; format: physicochemical; conditions: 10 to 100X excess of mercaptoethanol
Text: Chloride elimination from the neutral and anionic forms of 28 affords an equilibrating mixture of protonated (36), neutral (37), and anionic (37^-) quinone methides. Proton trapping by 37^-, in competition with water trapping of 36 and 37, then affords a mixture of 38 and 39. Evidence of steady-state intermediates capable of trapping nucleophiles (36 and 37) was obtained by adding 10 to 100X excess of Z-mercaptoethanol over 28. […] The presence mercaptoethanol results in formation of a hydroquinone (nucleophile-trapped) product 40 and no quinone 39, however. Thus, quinone methide formation must occur in a rate determining step, followed by its relatively rapid trapping by the mercaptide nuceophile. The mercaptoethanol trapping studies of benzimidazole (See: Skibo, E. B., J. Org. Chem. 1986, 51, 522) and quinazoline (See: Lemus et al., op. cit.) based quinone methides likewise provided evidence of a steady-state species.

[5] = lipophilicity (statement)
[6] = reduced capability to cycle between reduced and oxidized forms; cited from earlier work
[7] = aerobic aqueous buffer, 30.0 °C
[8] = regardless of pH (pH 6 to 12), 5×10^-5 M, 430 nm
[9] = read-out: IC50 values as low as

SMILES: Cc1nc2c(O)c3c(=O)[nH]c(C)nc3c(O)c2c(=O)[nH]1 [compound 43]
- acid dissociation constant (pKa) determined previously [1]: 8.26±0.15
- stability toward oxygen relative to reduced anthracyclines [2]: more stable toward oxygen than reduced anthracyclines
- rate of oxidation of the hydroquinone monoanion [2, 7]: 0.046 s⁻¹
- fold slower oxidation of 43^- than 44^- ([2]; monoanions): 128 fold
- k1, rate of oxidation of the neutral species ([2]; neutral hydroquinone, aerobic aqueous buffer, 30.0 °C): 0.001 s⁻¹
- rate of oxidation at physiological pH [2]: 1.7×10^-2 sec^-1
- pKa (physchem; aerobic aqueous buffer, from pH-rate profile of oxidation, read-out: pKa1 (hydroquinone acid dissociation constant from pH-rate data)): 7.78

SMILES: O=C1c2nc(CBr)[nH]c(=O)c2C(=O)c2nc(CBr)[nH]c(=O)c21 [compound 19, 2,7-Bis(bromomethyl)pyrimido[4,5-g]quinazoline-4,5,9,10(3H,8H)-tetrone]
- IC50 (colon and breast cancers): > 1 µM
- antitumor activity (colon and breast cancers): poor activity
- pKa (physchem; anion formation near neutrality, read-out: pKa (conversion to an anion)): 6.5

SMILES: Cc1nc2c(O)c3c(=O)[nH]c(CCl)nc3c(O)c2c(=O)[nH]1 [compound 28, 2-(Chloromethyl)-5,10-dihydroxy-7-methylpryimido[4,5-g]quinazoline-4,9(3H,8H)-dione]
- yield of hydrolysis product 38 [3, 8]: 69±1%
- yield of hydrolysis product 39 [3, 8]: 31±1%
- observed rate constants in presence of 2-mercaptoethanol vs hydrolysis without it [4]: essentially the same
- pKa (physchem; aqueous buffer, from computer-fit of pH-rate profile of hydrolysis, read-out: kinetic pKa value): 8.3

SMILES: COc1c2nc(CCl)n(C)c(=O)c2c(OC)c2nc(CCl)n(C)c(=O)c12 [compound 16, 2,7-Bis(chloromethyl)-5,10-dimethoxy-3,8-dimethylpyrimido [4,5-g]quinazoline-4,9(3H,8H)-dione]
- IC50 (colon and breast cancers; [9]): ≥ 0.02 µM
- ionization at physiological pH (physchem): will not ionize at physiological pH

SMILES: Cc1nc2c(O)c3c(=O)n(C)c(C)nc3c(O)c2c(=O)n1C [compound 44]
- stability toward oxygen relative to reduced anthracyclines [2]: more stable toward oxygen than reduced anthracyclines
- rates of oxidation ([2]; at or above pH 9): stopped flow rates
- rate of oxidation of the hydroquinone monoanion [2, 7]: 5.8 s⁻¹
- rate of oxidation at physiological pH [2]: 9×10^-3 sec^-1

SMILES: COc1c2nc(CBr)n(C)c(=O)c2c(OC)c2nc(CBr)n(C)c(=O)c12 [compound 17, 2,7-Bis (bromomethyl)-5,10-dimethoxy-3,8-dimethylpyrimido[4,5-g]quinazoline-4,9(3H,8H)-dione]
- IC50 (colon and breast cancers; [9]): ≥ 0.02 µM
- lipophilicity [5]: lipophilic
- ionization at physiological pH (physchem): will not ionize at physiological pH

SMILES: COc1cccc2c1C(=N)c1c(O)c3c(c(O)c1C2=O)C[C@@](O)(C(C)=O)C[C@@H]3O[C@H]1C[C@H](N)[C@H](O)[C@H](C)O1 [5-iminodaunorubicin]
- cardiotoxicity [6]: does reduce cardiotoxicity

SMILES: Cn1c(CCl)nc2c(c1=O)C(=O)c1nc(CCl)n(C)c(=O)c1C2=O [compound 22, 2,7-Bis(chloromethyl)-3,8-dimethylpyrimido[4,5-g]quinazoline-4,5,9,10(3H8H)-tetrone]
- antitumor activity (colon and breast cancers): inactive

SMILES: Cc1nc2c(O)c3c(=O)n(C)c(CCl)nc3c(O)c2c(=O)n1C [compound 35, 2-(Chloromethyl)-5,10-dihydroxy-3,7,8-trimethylpyrimido[4,5-g]quinazoline-4,9(3H,8H)-dione]
- stability in protic solvent ([3]; any protic solvent): rapidly eliminates HCl
- k1, rate constant for elimination of chloride from the monoanion ([3]; monoanion, anaerobic aqueous buffer, 30.0 °C): 24 s⁻¹
- rates of hydrolysis ([3]; much above pH 8): stopped-flow rates
